ChEMBL document CHEMBL5055629, “Design and synthesis of Grp94 selective inhibitors based on Phe199 induced fit mechanism and their anti-inflammatory effects” (Eur J Med Chem, 2021)
Converted amounts (≈) assume the structure as drawn.

Tests used:
[1] = target: T1, Endoplasmin (Canis lupus familiaris, UniProt P41148); test: Inhibition of GST-tagged dog GRP94 (69 to 337 residues) expressed in Escherichia coli BL21 (DE3) measured after 4 hrs by fluorescent polarization assay
[2] = Lipophilicity, logD of compound at pH 7.4; assay type: physicochemical; conditions: buffer
[3] = Aqueous solubility of compound; assay type: physicochemical; conditions: buffer
[4] = Permeability of compound at pH 7.4; assay type: ADME; conditions: not told, read-out: permeability
[5] = Metabolic stability in mouse microsomes assessed as half life in presence of NADPH at 10 uM measured after 120 mins by LC-MS/MS analysis; assay type: ADME, Microsome
[6] = Metabolic stability in mouse microsomes assessed as clearance in presence of NADPH at 10 uM measured after 120 mins by LC-MS/MS analysis; assay type: ADME, Microsome; conditions: 2 h
[7] = Metabolic stability in human microsomes assessed as half life in presence of NADPH at 10 uM measured after 120 mins by LC-MS/MS analysis; assay type: ADME, Microsome
[8] = Metabolic stability in human microsomes assessed as clearance in presence of NADPH at 10 uM measured after 120 mins by LC-MS/MS analysis; assay type: ADME, Microsome; conditions: 2 h
[9] = target: T2, Heat shock protein HSP 90-alpha (Homo sapiens, UniProt P07900); test: Binding affinity to Hsp90alpha (unknown origin) by fluorescent polarization assay
[10] = Tmax in Sprague-Dawley rat at 10 mg/kg, iv measured after 24 hrs by LC-MS/MS analysis; assay type: ADME, organism-based; conditions: in vivo
[11] = Tmax in Sprague-Dawley rat at 40 mg/kg, po measured after 24 hrs by LC-MS/MS analysis; assay type: ADME, organism-based; conditions: in vivo
[12] = Half life in Sprague-Dawley rat at 10 mg/kg, iv measured after 24 hrs by LC-MS/MS analysis; assay type: ADME, organism-based; conditions: in vivo
[13] = Half life in Sprague-Dawley rat at 40 mg/kg, po measured after 24 hrs by LC-MS/MS analysis; assay type: ADME, organism-based; conditions: in vivo
[14] = Cmax in Sprague-Dawley rat at 10 mg/kg, iv measured after 24 hrs by LC-MS/MS analysis; assay type: ADME, organism-based; set-up: dose 10 mg/kg, time 24 hrs, route iv; conditions: in vivo
[15] = Cmax in Sprague-Dawley rat at 40 mg/kg, po measured after 24 hrs by LC-MS/MS analysis; assay type: ADME, organism-based; set-up: time 24 hrs, dose 40 mg/kg, route po; conditions: in vivo
[16] = AUC (0 to infinity) in Sprague-Dawley rat at 10 mg/kg, iv measured after 24 hrs by LC-MS/MS analysis; assay type: ADME, organism-based; set-up: dose 10 mg/kg, time 24 hrs, route iv; conditions: in vivo
[17] = AUC (0 to infinity) in Sprague-Dawley rat at 40 mg/kg, po measured after 24 hrs by LC-MS/MS analysis; assay type: ADME, organism-based; set-up: dose 40 mg/kg, time 24 hrs, route po; conditions: in vivo
[18] = Apparent volume of distribution in Sprague-Dawley rat at 10 mg/kg, iv measured after 24 hrs by LC-MS/MS analysis; assay type: ADME, organism-based; conditions: in vivo
[19] = Apparent volume of distribution in Sprague-Dawley rat at 40 mg/kg, po measured after 24 hrs by LC-MS/MS analysis; assay type: ADME, organism-based; conditions: in vivo
[20] = Clearance in Sprague-Dawley rat at 10 mg/kg, iv measured after 24 hrs by LC-MS/MS analysis; assay type: ADME, organism-based; conditions: in vivo
[21] = Clearance in Sprague-Dawley rat at 40 mg/kg, po measured after 24 hrs by LC-MS/MS analysis; assay type: ADME, organism-based; conditions: in vivo
[22] = Oral bioavailability in Sprague-Dawley rat at 40 mg/kg measured after 24 hrs by LC-MS/MS analysis; assay type: ADME, organism-based; conditions: in vivo
[23] = tested on: Mus musculus; test: Toxicity in DSS-induced Ulcerative colitis C57BL/6 mouse model assessed as loss of body weight at 10 to 50 mg/kg, ip measured for 9 days; assay type: organism-based; conditions: in vivo, 216 h, dose 10-50 mg/kg, time 9 day
[24] = tested on: Mus musculus; test: Anti-ulcerative colitis activity against DSS-induced Ulcerative colitis C57BL/6 mouse model assessed as disease activity index at 10 mg/kg, ip measured for 8 days (reference value: 8.37+/-0.3); assay type: functional; conditions: time 8 day
[25] = tested on: Mus musculus; test: Anti-ulcerative colitis activity against DSS-induced Ulcerative colitis C57BL/6 mouse model assessed as disease activity index at 30 mg/kg, ip measured for 8 days (reference value: 8.37+/-0.3); assay type: functional; conditions: time 8 day
[26] = tested on: Mus musculus; test: Anti-ulcerative colitis activity against DSS-induced Ulcerative colitis C57BL/6 mouse model assessed as disease activity index at 50 mg/kg, ip measured for 8 days (reference value: 8.37+/-0.3); assay type: functional; conditions: time 8 day
[27] = target: Endoplasmin (Canis lupus familiaris) (UniProt P41148); conditions: dose 0.37-10 µM
Description: Binding affinity to GST-tagged dog GRP94 (69 to 337 residues) expressed in Escherichia coli BL21 (DE3) assessed as association constant at 0.37 to 10 uM measured by BLI assay

[28] = target: T2, Heat shock protein HSP 90-alpha; conditions: dose 1.1-30 µM
Description: Binding affinity to His-tagged human N-terminal HSP90alpha (1 to 236 residues) expressed in Escherichia coli BL21 (DE3) assessed as association constant at 1.1 to 30 uM measured by BLI assay

[29] = tested on: Mus musculus; test: Toxicity in DSS-induced Ulcerative colitis C57BL/6 mouse model assessed as effect on liver weight index at 10 to 50 mg/kg, ip measured after 8 days; conditions: in vivo, 192 h
[30] = target: T1, Endoplasmin; test: Binding affinity to GST-tagged dog GRP94 (69 to 337 residues) expressed in Escherichia coli BL21 (DE3) assessed as dissociation rate constant at 0.37 to 10 uM measured by BLI assay
[31] = target: T2, Heat shock protein HSP 90-alpha; test: Binding affinity to His-tagged human N-terminal HSP90alpha (1 to 236 residues) expressed in Escherichia coli BL21 (DE3) assessed as dissociation rate constant at 1.1 to 30 uM measured by BLI assay
[32] = target: Endoplasmin (Homo sapiens, UniProt P14625); test: Binding affinity to Grp94 (unknown origin) by fluorescent polarization assay
Endoplasmin (Homo sapiens, UniProt P14625), sequence (P14625 whole entry): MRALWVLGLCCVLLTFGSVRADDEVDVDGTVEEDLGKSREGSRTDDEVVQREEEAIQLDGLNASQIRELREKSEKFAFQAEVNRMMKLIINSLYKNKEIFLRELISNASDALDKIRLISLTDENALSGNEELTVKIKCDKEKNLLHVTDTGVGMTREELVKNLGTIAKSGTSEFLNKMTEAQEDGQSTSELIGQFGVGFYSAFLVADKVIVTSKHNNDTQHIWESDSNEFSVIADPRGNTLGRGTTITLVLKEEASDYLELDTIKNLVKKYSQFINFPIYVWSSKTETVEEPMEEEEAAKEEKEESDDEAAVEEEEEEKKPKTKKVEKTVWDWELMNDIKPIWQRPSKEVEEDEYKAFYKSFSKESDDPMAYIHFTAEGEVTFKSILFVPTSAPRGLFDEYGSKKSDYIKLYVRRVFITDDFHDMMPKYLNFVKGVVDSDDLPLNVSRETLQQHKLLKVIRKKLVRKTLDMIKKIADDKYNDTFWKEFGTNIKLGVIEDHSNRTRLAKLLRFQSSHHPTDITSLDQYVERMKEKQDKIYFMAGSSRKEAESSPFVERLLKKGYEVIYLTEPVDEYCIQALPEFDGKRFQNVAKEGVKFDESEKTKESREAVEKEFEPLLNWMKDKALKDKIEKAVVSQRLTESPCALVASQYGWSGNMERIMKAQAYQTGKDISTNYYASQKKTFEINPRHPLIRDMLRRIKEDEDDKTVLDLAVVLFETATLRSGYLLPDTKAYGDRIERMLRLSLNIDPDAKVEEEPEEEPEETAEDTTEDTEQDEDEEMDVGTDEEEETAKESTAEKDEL

T1 sequence (P41148 whole entry, the tested form may be a part): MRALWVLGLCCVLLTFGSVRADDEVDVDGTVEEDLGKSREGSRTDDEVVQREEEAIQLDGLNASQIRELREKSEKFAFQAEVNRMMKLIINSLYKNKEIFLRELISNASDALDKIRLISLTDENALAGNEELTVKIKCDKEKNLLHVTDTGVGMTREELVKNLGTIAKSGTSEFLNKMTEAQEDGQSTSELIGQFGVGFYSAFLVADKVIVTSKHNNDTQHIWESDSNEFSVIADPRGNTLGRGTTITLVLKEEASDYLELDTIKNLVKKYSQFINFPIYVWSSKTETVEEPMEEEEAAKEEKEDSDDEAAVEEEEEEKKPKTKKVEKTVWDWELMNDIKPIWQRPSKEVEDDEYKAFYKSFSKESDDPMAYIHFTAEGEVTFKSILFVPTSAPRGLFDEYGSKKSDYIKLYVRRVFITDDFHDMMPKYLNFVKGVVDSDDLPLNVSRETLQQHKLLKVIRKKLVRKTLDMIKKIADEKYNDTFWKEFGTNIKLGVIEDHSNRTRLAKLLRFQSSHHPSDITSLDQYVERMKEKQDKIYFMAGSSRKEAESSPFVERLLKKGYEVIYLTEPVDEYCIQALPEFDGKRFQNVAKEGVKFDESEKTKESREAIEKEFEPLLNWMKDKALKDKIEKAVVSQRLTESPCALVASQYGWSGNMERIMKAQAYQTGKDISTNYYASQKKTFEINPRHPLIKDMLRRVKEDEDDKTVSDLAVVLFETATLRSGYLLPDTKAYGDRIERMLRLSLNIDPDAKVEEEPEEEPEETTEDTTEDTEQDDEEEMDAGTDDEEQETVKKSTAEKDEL
Endoplasmin (Canis lupus familiaris), sequence (P41148 whole entry): as the sequence (P41148 whole entry, the tested form may be a part) above

CCCCC#Cc1ccc(NCCO)c(C(N)=O)c1
IC50 [1]: 6840 nM

CCCCC#Cc1ccc(NCC2CCOCC2)c(C(N)=O)c1
IC50 [1]: 393 nM

CCCCC#Cc1ccc(NC2CCOC2)c(C(N)=O)c1 (stereo not drawn)
IC50 [1]: 310 nM

CCCCC#Cc1ccc(NC2CCN(C(=O)CN3CCOCC3)CC2)c(C(N)=O)c1
IC50 [1]: 1490 nM

CCCCC#Cc1ccc(NC2CCN(C(=O)CC3CC3)CC2)c(C(N)=O)c1
IC50 [1]: 797 nM

CC(C)c1ccc(-c2ccc(N[C@H]3CC[C@H](O)CC3)c(C(N)=O)c2)cc1
IC50 [1]: 20 nM | logD [2]: 4.59 | solubility [3]: 3.9 µg/mL (≈ 11.1 µM) | Papp [4]: 99.2 ×10⁻⁶ cm/s | half-life at 10 µM [5]: 1.04 h | CL [6]: 13.5 µL/min/mg | half-life at 10 µM [7]: 4.28 h | CL [8]: 25.5 µL/min/mg

CCCCC#Cc1ccc(NCCOC)c(C(N)=O)c1
IC50 [1]: 10900 nM

CN(C)CC#Cc1ccc(N[C@H]2CC[C@H](O)CC2)c(C(N)=O)c1
IC50 [1]: 62600 nM

CCCCC#Cc1ccc(NC2CCN(C(=O)CCN3CCOCC3)CC2)c(C(N)=O)c1
IC50 [1]: 985 nM

CC(C)CCC#Cc1ccc(N[C@H]2CC[C@H](O)CC2)c(C(N)=O)c1
IC50 [1]: 519 nM

CCOc1ccccc1Cn1ccnc1CCc1c(Cl)c(O)cc(O)c1C(=O)OC
Kd [9]: 8200 nM

NC(=O)c1cc(C#CC2CCCCC2)ccc1N[C@H]1CC[C@H](O)CC1
IC50 [1]: 210 nM

CCCCC#Cc1ccc(NCC2CCN(C(C)=O)CC2)c(C(N)=O)c1
IC50 [1]: 4780 nM

NC(=O)c1cc(C#CCCCCl)ccc1N[C@H]1CC[C@H](O)CC1
IC50 [1]: 205 nM

CC(C)CC#Cc1ccc(N[C@H]2CC[C@H](O)CC2)c(C(N)=O)c1
IC50 [1]: 313 nM

CCCCC#Cc1ccc(NC2CCNCC2)c(C(N)=O)c1
IC50 [1]: 1610 nM

CCCCC#Cc1ccc(NCCOCC)c(C(N)=O)c1
IC50 [1]: 7540 nM

CCCCC#Cc1ccc(NC2CCN(C(C)=O)CC2)c(C(N)=O)c1
IC50 [1]: 203 nM | logD [2]: 3.24 | solubility [3]: 16 µg/mL (≈ 46.9 µM) | Papp [4]: 94.6 ×10⁻⁶ cm/s

CCCCC#Cc1ccc(NC2CCN(C(=O)C3CC3)CC2)c(C(N)=O)c1
IC50 [1]: 528 nM

CCCCC#Cc1ccc(NC2CCCNC2)c(C(N)=O)c1 (stereo not drawn)
IC50 [1]: 627 nM

CCCCC#Cc1ccc(NCC2CCN(C(=O)C3CC3)CC2)c(C(N)=O)c1
IC50 [1]: 2410 nM

CCCCC#Cc1ccc(NCCCO)c(C(N)=O)c1
IC50 [1]: 2770 nM

CC(C)(C)C#Cc1ccc(N[C@H]2CC[C@H](O)CC2)c(C(N)=O)c1
IC50 [1]: 325 nM

CCCCC#Cc1ccc(NCCNC(C)=O)c(C(N)=O)c1
IC50 [1]: 2020 nM

CCCCC#Cc1ccc(NCC2CCNCC2)c(C(N)=O)c1
IC50 [1]: 16600 nM

CCN(CC)CC#Cc1ccc(N[C@H]2CC[C@H](O)CC2)c(C(N)=O)c1
IC50 [1]: > 100000 nM

CCCCC#Cc1ccc(N[C@H]2CC[C@H](O)CC2)c(C(N)=O)c1
IC50 [1]: 60 nM | logD [2]: 3.69 | solubility [3]: 11 µg/mL (≈ 35 µM) | Papp [4]: 97.9 ×10⁻⁶ cm/s | Tmax [10]: 3 min | Tmax [11]: 0.38 h | t1/2 [12]: 15.25 h | t1/2 [13]: 4.69 h | Cmax [14]: 2410 ng/mL | Cmax [15]: 600 ng/mL | AUC [16]: 1.51 µg/mL/h | AUC [17]: 0.95 µg/mL/h | Vz [18]: 1.47 L/kg | Vz [19]: 2.81 L/kg | CL [20]: 111 mL/min/kg | CL [21]: 72.8 mL/min/kg | bioavailability [22]: 15.7% | half-life at 10 µM [5]: 1.8 h | CL [6]: 11 µL/min/mg | half-life at 10 µM [7]: 5.78 h | CL [8]: 12.8 µL/min/mg | Activity [23]: Non-Toxic | Activity_index [24]: 3.04 | Activity_index [25]: 2.3 | Activity_index [26]: 1.76 | Ka [27]: 2.56 10^5/M/s | Ka [28]: 1.22 10^5/M/s | Activity [29]: Non-Toxic | koff [30]: 2.84 10^-2/s | koff [31]: 1.14 10^-2/s

NC(=O)c1cc(C#CC2CC2)ccc1N[C@H]1CC[C@H](O)CC1
IC50 [1]: 251 nM

CCCCC#Cc1ccc(NCCCOC)c(C(N)=O)c1
IC50 [1]: 2060 nM

CC(C)NCCCn1c(Sc2cc(Cl)cc(Cl)c2)nc2c(N)ncnc21
Kd [32]: 220 nM | Kd [9]: > 250000 nM

NC(=O)c1cc(C#CC2CCCC2)ccc1N[C@H]1CC[C@H](O)CC1
IC50 [1]: 100 nM

CCCCC#Cc1ccc(NC2CCN(C(=O)CN(C)C)CC2)c(C(N)=O)c1
IC50 [1]: 1110 nM

CC(C)C#Cc1ccc(N[C@H]2CC[C@H](O)CC2)c(C(N)=O)c1
IC50 [1]: 914 nM

CCCCC#Cc1ccc(NCCCOCC)c(C(N)=O)c1
IC50 [1]: 3310 nM

CCCCC#Cc1ccc(NC2CCCN(C(C)=O)C2)c(C(N)=O)c1 (stereo not drawn)
IC50 [1]: 2040 nM

CC(C)c1cc(C(=O)N2Cc3ccc(CN4CCN(C)CC4)cc3C2)c(O)cc1O [ONALESPIB]
IC50 [1]: 13 nM

CCCCC#Cc1ccc(NCC2CCOC2)c(C(N)=O)c1 (stereo not drawn)
IC50 [1]: 947 nM

CCCCC#Cc1ccc(NC2CCOCC2)c(C(N)=O)c1
IC50 [1]: 234 nM
